Earlier results on nine compounds are cited in patent publication US20060024360A1, “Stable injectable composition of alpha tocopheryl succinate, analogues and salts thereof” (SD Pharmaceuticals, Inc., priority 2004, published 2006).

For series [1], the system named is mouse cancer line (C1271).
Another series concerns malignant mesothelioma. The following applies: immunocompromised mice.
Series [2] concerns human gastric carcinoma cell. Conditions: human cells.
A further series relates to melanoma. Conditions: mice.
Series [3] relates to color cancer liver metastases. The following applies: in vivo.

Structures can show the parent of a compound that is named as a salt.

`Cc1c(C)c2c(c(C)c1O)CC[C@@](C)(CCC[C@H](C)CCC[C@H](C)CCCC(C)C)O2` (racemic) [alpha-tocopherol, (±)-(2RS,4′RS,8′RS)-2,5,7,8-tetramethyl-2-(4′,8′, 12′-trimethyltridecyl)-6-chromanol]: the induction of apoptosis result in series [1] is reported as “not apoptogenic”. Regarding `CC(=O)Oc1c(C)c(C)c2c(c1C)CCC(C)(CCC[C@H](C)CCC[C@H](C)CCCC(C)C)O2` (stereo partly drawn) [alpha-tocopheryl acetate], the induction of apoptosis result in series [1] is listed as “not apoptogenic”.

In the case of `Cc1c(C)c2c(c(C)c1OC(=O)CC(=O)O)CCC(C)(CCCC(C)CCCC(C)CCCC(C)C)O2` (stereo not drawn) [alpha-tocopheryl malonate, Alpha-tocopheryl malonate], the induction of apoptosis entry in series [1] was “induce apoptosis”.

Turning to `Cc1c(C)c2c(c(C)c1OC(=O)c1cccnc1)CC[C@@](C)(CCC[C@H](C)CCC[C@H](C)CCCC(C)C)O2` [alpha-tocopheryl nicotinate], the induction of apoptosis entry in series [1] is recorded as “not apoptogenic”. For the compound `Cc1c(C)c2c(c(C)c1OC(=O)C(=O)O)CCC(C)(CCCC(C)CCCC(C)CCCC(C)C)O2` (stereo not drawn) [alpha-tocopheryl oxalate, Alpha-tocopheryl oxalate], in series [1], the induction of apoptosis entry is “induce apoptosis” and the “relative potency among alpha-tocopheryl derivatives tested” value was “most potent”. In the case of `Cc1c(C)c2c(c(C)c1OC(=O)CCCCCC(=O)O)CCC(C)(CCCC(C)CCCC(C)CCCC(C)C)O2` (stereo not drawn) [alpha-tocopheryl pimelate, Alpha-tocopheryl pimelate], the induction of apoptosis entry in series [1] is given as “not apoptogenic”. As to `CCOC(=O)CCC(=O)Oc1c(C)c(C)c2c(c1C)CCC(C)(CCCC(C)CCCC(C)CCCC(C)C)O2` (stereo not drawn) [alpha-tocopheryl succinate ethyl ester], in series [1], the induction of apoptosis entry is given as “not apoptogenic”. `Cc1c(C)c2c(c(C)c1OC(=O)CCC(=O)O)CC[C@@](C)(CCC[C@H](C)CCC[C@H](C)CCCC(C)C)O2` [alpha-tocopheryl succinate]: in the series on malignant mesothelioma, the malignant mesothelioma entry was “suppressed malignant mesothelioma”. In series [1], the induction of apoptosis result is given as “induce apoptosis”. In addition, the “gastric carcinoma cell growth” value in series [2] is listed as “inhibits human gastric carcinoma cell growth”. Besides, the melanoma growth entry in the series with melanoma is “inhibited melanoma growth”. The liver metastases entry in series [3] was “inhibiting color cancer liver metastases”. Regarding `Cc1c(O)cc2c(c1C)O[C@](C)(CCC[C@H](C)CCC[C@H](C)CCCC(C)C)CC2` [gamma-tocopherol, Gamma-tocopherol], the induction of apoptosis entry in series [1] is reported as “not apoptogenic”.
